Read-outs that look alike come from different tables or passages of the source.
Assays:
[1] = system: A549 human non-small cell lung cancer (NSCLC) cell line; experiment: Neutral red (NR) uptake cytotoxicity assay, A549; format: cell-based; conditions: for IC50: Homo sapiens, A549, 72 h, neutral red assay, 72 h incubation; for selectivity index A549: IC50 in CRL2120 normal fibroblasts divided by IC50 in A549
Excerpt: (§1) Six human cancer cell lines and one normal cell line were used in this study. They included A549 human non-small cell lung cancer (NSCLC) cell line, obtained from the Institute for Fermentation, Osaka (IFO, Japan) and provided by Prof. Dr. Tansu Koparal (Anadolu University, Eskisehir, Turkey), SPC212 human mesothelioma cell line obtained from American Type Culture Collection (ATCC) and provided by Dr. Asuman Demiroğlu Zergeroğlu (Gebze Technical University, Kocaeli, Turkey), DLD-1 colorectal adenocarcinoma cell lines obtained from ATCC (CCL-221), Caco2 colorectal adenocarcinoma cells (ATCC, HTB-37) obtained from the ŞAP Institute of Turkey (Ankara), HepG2 hepatocarcinoma cells (ATCC, HB-8065) and MCF-7 breast adenocarcinoma cells (ATCC, HTB-22) were provided by Prof. Dr. Tansu Koparal (Anadolu University, Eskisehir, Turkey). The normal CRL2120 human skin fibroblasts were obtained from ATCC [CCD1094Sk (ATCC, CRL-2120)]. The cells were maintained as a monolayer in DMEM medium (Sigma-aldrich, Munich, Germany) medium supplemented with 10% fetal calf serum and 1% penicillin (100 U/mL)-streptomycin (100 μg/mL) in a humidified 5% CO2 atmosphere at 37 °C.
(§2) The cytotoxicity of samples was performed by NR uptake assay as previously described. This method is based on the ability of viable cells to incorporate and bind the supravital dye NR in the lysosomes. […] Briefly, cells were detached by treatment with 0.25% trypsin/EDTA (Invitrogen) and an aliquot of 1 × 10^4 cells was placed in each well of a 96-well cell culture plate (Thermo Scientific, Germany) in a total volume of 200 μL. The cells were allowed to attach overnight and subsequently treated with different concentrations of the 14 compounds. Each of the studied samples was immediately added in varying concentrations in additional 100 μL of culture medium to obtain a total volume of 200 μL/well. After 72 h incubation in humidified 5% CO2 atmosphere at 37 °C, the medium was removed and 200 μL fresh medium containing 50 μg/mL NR was added to each well and incubation continued for an additional 3 h at 37 °C in 5% CO2 atmosphere. The dye medium was then removed and each well was then washed rapidly with 200 μL phosphate buffer saline (PBS) followed by addition of 200 μL of acetic acid-water-ethanol in water (1:49:50). The plates were kept for 15 min at room temperature to extract the dye and then shaken for a few minutes on a GFL 3012 shaker (Gesellschaft für Labortechnik mbH, Burgwedel, Germany). Absorbance was measured on ELx 808 Ultra Microplate Reader (Biotek) equipped with a 540 nm filter. Each assay was done at least three times, with three replicates each. The viability was evaluated based on a comparison with untreated cells. The IC50 values represent the sample’s concentrations required to inhibit 50% of cell proliferation and were calculated from a calibration curve by linear regression using Microsoft Excel.

[2] = system: SPC212 human mesothelioma cell line; experiment: Neutral red (NR) uptake cytotoxicity assay, SPC212; format: cell-based; conditions: for selectivity index SPC212: IC50 in CRL2120 normal fibroblasts divided by IC50 in SPC212
Excerpt: as §1
as §2, with “lysosomes. The procedure is cheaper and more sensitive than other cytotoxicity tests.” for “lysosomes.”

[3] = system: DLD-1 colorectal adenocarcinoma cell lines; experiment: Neutral red (NR) uptake cytotoxicity assay, DLD-1; format: cell-based, human; conditions: for IC50: Homo sapiens, read-out: IC50 DLD-1; for selectivity index DLD-1: IC50 in CRL2120 normal fibroblasts divided by IC50 in DLD-1
Excerpt: as §1
as §2, with “lysosomes. The procedure is cheaper and more sensitive than other cytotoxicity tests.” for “lysosomes.”

[4] = Neutral red (NR) uptake cytotoxicity assay, Caco-2; format: cell-based, human; conditions: human; IC50 in CRL2120 normal fibroblasts divided by IC50 in Caco-2; read-out: selectivity index Caco-2 (converted)
Excerpt: as §1
as §2, with “lysosomes. The procedure is cheaper and more sensitive than other cytotoxicity tests.” for “lysosomes.”

[5] = system: Caco2 colorectal adenocarcinoma cells; experiment: Neutral red (NR) uptake cytotoxicity assay, Caco-2; format: cell-based, human; conditions: Homo sapiens, Caco-2; neutral red assay, 72 h incubation
Excerpt: as §1
as §2, with “lysosomes. The procedure is cheaper and more sensitive than other cytotoxicity tests.” for “lysosomes.”

[6] = system: MCF-7 breast adenocarcinoma cells; experiment: Neutral red (NR) uptake cytotoxicity assay, MCF-7; format: cell-based, human; conditions: for IC50: read-out: IC50 MCF-7; for selectivity index MCF-7: IC50 in CRL2120 normal fibroblasts divided by IC50 in MCF-7
Excerpt: as §1
as §2, with “lysosomes. The procedure is cheaper and more sensitive than other cytotoxicity tests.” for “lysosomes.”

[7] = system: HepG2 hepatocarcinoma cells; experiment: Neutral red (NR) uptake cytotoxicity assay, HepG2; format: cell-based, human; conditions: for IC50: Homo sapiens, read-out: IC50 HepG2; for selectivity index HepG2: IC50 in CRL2120 normal fibroblasts divided by IC50 in HepG2
Excerpt: as §1
as §2, with “lysosomes. The procedure is cheaper and more sensitive than other cytotoxicity tests.” for “lysosomes.”

[8] = system: normal CRL2120 human skin fibroblasts; experiment: Neutral red (NR) uptake cytotoxicity assay, normal CRL2120 fibroblasts; format: cell-based; conditions: Skin fibroblast, 72 h incubation
Excerpt: as §1
as §2, with “lysosomes. The procedure is cheaper and more sensitive than other cytotoxicity tests.” for “lysosomes.”

[9] = system: six tested cancer cell lines (A549, SPC212, DLD-1, Caco-2, MCF-7, HepG2); experiment: Neutral red uptake assay, statements over the six tested cancer cell lines; format: cell-based, human; conditions: for IC50: Homo sapiens, bound valid for all six cancer cell lines, neutral red assay
Excerpt: as §1
as §2, with “lysosomes. The procedure is cheaper and more sensitive than other cytotoxicity tests.” for “lysosomes.”

MCF-7 cells [10] = experiment: Flow cytometry cell cycle analysis and detection of apoptotic cells; format: cell-based, human; conditions: IC50, 72 h, non-treated cells 3.1%
Procedure: The cell-cycle analysis was performed by flow cytometry using BD cycletest^TM Plus DNA Kit Assay (BD Biosciences, San Jose, USA). The BD Cycletest™ Plus DNA kit provides a set of reagents for isolating and staining cell nuclei. Flow cytometric analysis of differentially stained cells is used to estimate the DNA index (DI) and cell-cycle phase distributions. Briefly, MCF-7 cells (3 mL, 1 × 10^5 cells/mL) were seeded into each well of 6-well plates and allowed to attach for 24 h. […] The untreated cells (control) were also included in the assay. They were further trypsinized and suspended in 1 mL PBS, then centrifuged at 400 g for 5 min at room temperature (RT). The cells were further processed according to the manufacturer protocol: addition of 250 μL of solution A (trypsin buffer), 10 min incubation at RT followed by the addition of 200 μL of solution B (trypsin inhibitor and RNAse buffer), 10 min incubation at RT followed by the addition of 200 μL of solution C (2–8 °C) (propidium iodide stain solution), 10 min on ice. The cells were further measured on a BD FACS Aria I Cell Sorter Flow Cytometer (Becton-Dickinson, Germany). For each sample, 10^4 cells were counted. For PI excitation, an argon-ion laser emitting at 488 nm was used. Cytographs were analyzed using BD FACSDiva™ Flow Cytometry Software Version 6.1.2 (Becton-Dickinson).

MCF-7 cells [11] = experiment: Mitochondrial membrane potential (MMP) analysis, JC-1 staining, flow cytometry; format: cell-based, human; conditions: IC50 (C3), 72 h, control 4.3%
Procedure: The MMP was analyzed in MCF-7 cells by 5,5′,6,6′-tetrachloro-1,1′,3,3′-tetraethylbenzimidazolylcarbocyanine iodide) (JC-1; Biomol, Hamburg, Germany) staining as previously reported. […] Subsequently, cells were measured in a BD FACS Aria I Cell Sorter Flow Cytometer (Becton-Dickinson, Germany). The JC-1 signal was measured at an excitation of 561 nm (150 mW) and detected using a 586/15 nm band-pass filter. The signal was analyzed at 640 nm excitation (40 mW) and detected using a 730/45 nm bandpass filter. Cytographs were analyzed using BD FACSDiva™ Flow Cytometry Software Version 6.1.2 (Becton-Dickinson). All experiments were performed at least in triplicate.

MCF-7 cells [12] = experiment: Measurement of reactive oxygen species (ROS), DCFH-DA; format: cell-based, human; conditions: at IC50, 24 h
Procedure: This is a cell-based assay for measuring hydroxyl, peroxyl, or other reactive oxygen species activity within a cell. The assay employs the cell-permeable fluorogenic probe 2′,7′-dichlorodihydrofluorescin diacetate (DCFH-DA). DCFH-DA is diffused into cells and is deacetylated by cellular esterases to non-fluorescent 2′,7′-dichlorodihydrofluorescin (DCFH), which is rapidly oxidized to highly fluorescent 2′,7′-dichlorofluorescein (DCF) by ROS. […] After addition of 100 μL 1× DCFH-DA/DMEM solution to cells and incubation at 37 °C for 30–60 min, the fluorescence was measured using SpectraMax® M5 Microplate Reader (Molecular Devices, Biberach, Germany) at 480/530 nm. All experiments were performed at least in triplicate.

[13] = Homo sapiens, 72 h, neutral red assay, 72 h incubation, read-out: IC50 SPC212
[14] = DLD-1, neutral red assay, 72 h incubation
[15] = Homo sapiens, MCF7, 72 h, neutral red assay, 72 h incubation
[16] = HepG2, neutral red assay, 72 h incubation
[17] = neutral red assay, 72 h incubation

Structure (SMILES)	IC50 [1]	selectivity index A549 [1]	IC50 [2, 13]	selectivity index SPC212 [2]	IC50 [3, 14]	selectivity index DLD-1 [3]	selectivity ratio at 72 h [4]	IC50 [5]	IC50 [6, 15]	selectivity index MCF-7 [6]	IC50 [7, 16]	selectivity index HepG2 [7]	IC50 [8]	IC50 [9]	IC50 [6, 17]	further results
CCCCCCCCCCCCCCCC1=C(O)C(=O)C=C(O)C1=O [Compound 10, 2,5-dihydroxy-3-pentadecyl-2,5-cyclohexadiene-1,4-dione]	43.3 ± 2.72 µM	> 2.87	< 10 µM	> 14.81	51.2 ± 5.54 µM	> 2.43	> 4.47	27.8 ± 2.03 µM	30.4 ± 8.64 µM	> 4.09	48.4 ± 3.73 µM	> 2.57	> 124 µM	< 100 µM	–	IC50 ([2]; neutral red assay, 72 h incubation, read-out: IC50 SPC212): 8.39 ± 0.48 µM
CCCCCCCCCCCC1=C(O)C(=O)C=C(OC)C1=O [Compound 11, 2-hydroxy-5-methoxy-3-undecyl-1,4-benzoquinone]	50.3 ± 2.6 µM	0.88	38.3 ± 3.23 µM	1.15	45.4 ± 4.89 µM	0.97	1.14	38.9 ± 2.35 µM	22.6 µM	1.96	61.3 ± 5.53 µM	0.72	44.2 ± 0.2 µM	< 100 µM	22.6 ± 1.57 µM	–
CCCC/C=C\CCCCCCCCCCCCCC1=C(OC(C)=O)C(OC(C)=O)C(C)=C(OC(C)=O)C1OC(C)=O (centres unmarked) [Compound 13, 1,2,4,5-tetraacetate-3-methyl-6-(14-nonadecenyl)-cyclohexadi-2,5-diene]	47.5 ± 3.56 µM	1.96	36.2 ± 3.08 µM	2.57	25.1 ± 1.5 µM	3.72	3.78	24.6 ± 2.71 µM	< 10 µM	10.08	18.2 ± 1.46 µM	5.13	93.2 ± 1.17 µM	< 100 µM	9.25 ± 0.16 µM	selectivity indexes (CRL2120 vs carcinoma cells), lower bound over the cancer cell lines ([9]; IC50 CRL2120 / IC50 cancer cell line): > 1.96
COc1cccc2c1C(=O)c1c(O)c3c(c(O)c1C2=O)C[C@@](O)(C(=O)CO)C[C@@H]3O[C@H]1C[C@H](N)[C@H](O)[C@H](C)O1 [Doxorubicin, reference compound]	–	–	–	–	–	–	–	0.72 ± 0.13 µM	–	–	–	–	0.59 ± 0.01 µM	< 100 µM	–	IC50 ([2]; Homo sapiens, 72 h, read-out: IC50 SPC#): 0.07 ± 0.01 µM; IC50 ([3]; DLD-1, 72 h): 0.37 ± 0.05 µM; IC50 ([6]; Homo sapiens, MCF7, 72 h): 0.35 ± 0.05 µM; IC50 ([7]; HepG2, 72 h): 0.18 ± 0.03 µM; Sub-G0/G1 (apoptotic) cells, % of cells (MCF-7 cells [10]): 60%; MMP, gate P2 (loss / depletion of MMP) (MCF-7 cells [11]): 26%; increase in ROS levels as compared with non-treated cells (MCF-7 cells [12]): more than 2 fold

Source: PMC5175396, “Cytotoxicity of Plumbagin, Rapanone and 12 other naturally occurring Quinones from Kenyan Flora towards human carcinoma cells” (BMC Pharmacology & Toxicology, 2016)
